Source: patent US20150087673A1, “METHODS FOR USING AND BIOMARKERS FOR AMPK-ACTIVATING COMPOUNDS” (RIGEL PHARMACEUTICALS, INC., priority 2013, published 2015)

System: AMPK
Experiment: AMPK activation assay (enzyme-linked immunosorbent assay)
Assay type: cell-based
Procedure, shortened: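 Compounds were tested for their capacity to activate the kinase using standard, commercially available kit reagents and procedures.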

| SMILES | EC50 |
| --- | --- |
| N#Cc1ccc(CN2CCC(NC(=O)c3ccc(C(=O)NCCOc4ccc(F)cc4)cn3)CC2)cc1 [Compound 149, N2-(1-(4-cyanobenzyl)piperidin-4-yl)-N5-(2-(4-fluorophenoxy)ethyl)pyridine-2,5-dicarboxamide] | 500 to 1000 nM |
| N#Cc1ccc(O[C@H]2CC[C@@H](NC(=O)c3ccc(C(=O)N4CCN(Cc5ccc(F)cc5)CC4)cn3)CC2)cc1 [Compound 150, N-(cis-4-(4-cyanophenoxy)cyclohexyl)-5-(4-(4-fluorobenzyl)piperazine-1-carbonyl)picolinamide] | < 500 nM |
| N#Cc1ccc(CN2CCC(NC(=O)c3ccc(C(=O)N4CCCC(Cc5ccc(F)cc5)C4)cn3)CC2)cc1 (centres unmarked) [Compound 152, N-(1-(4-cyanobenzyl)piperidin-4-yl)-5-(3-(4-fluorobenzyl)piperidine-1-carbonyl)picolinamide] | < 500 nM |
| N#Cc1ccc(CN2CCC(NC(=O)c3ccc(C(=O)N4CCCCC4Cc4ccc(F)cc4)cn3)CC2)cc1 (centres unmarked) [Compound 153, N-(1-(4-cyanobenzyl)piperidin-4-yl)-5-(2-(4-fluorobenzyl)piperidine-1-carbonyl)picolinamide] | 1000 to 5000 nM |
| N#Cc1ccc(CN2CCC(NC(=O)c3ccc(C(=O)N4CCC(C(=O)c5ccc(Cl)cc5)CC4)cn3)CC2)cc1 [Compound 154, 5-(4-(4-chlorobenzoyl)piperidine-1-carbonyl)-N-(1-(4-cyanobenzyl)piperidin-4-yl)picolinamide] | < 500 nM |
| N#Cc1ccc(CN2CCC(NC(=O)c3ccc(C(=O)N4CCC(Oc5cccc(C#N)c5)CC4)cn3)CC2)cc1 [Compound 155, N-(1-(4-cyanobenzyl)piperidin-4-yl)-5-(4-(3-cyanophenoxy)piperidine-1-carbonyl)picolinamide] | < 500 nM |
| N#Cc1ccc(CN2CCC(NC(=O)c3ccc(C(=O)N4CCC(Oc5ccc(C#N)c(Cl)c5)CC4)cn3)CC2)cc1 [Compound 156, 5-(4-(3-chloro-4-cyanophenoxy)piperidine-1-carbonyl)-N-(1-(4-cyanobenzyl)piperidin-4-yl)picolinamide] | < 500 nM |
| N#Cc1ccc(CN2CCC(NC(=O)c3ccc(C(=O)N4CCC(Oc5ccc(C(F)(F)F)cc5)CC4)cn3)CC2)cc1 [Compound 157, N-(1-(4-cyanobenzyl)piperidin-4-yl)-5-(4-(4-(trifluoromethyl)phenoxy)piperidine-1-carbonyl)picolinamide] | < 500 nM |
| N#Cc1ccc(CN2CCC(NC(=O)c3ccc(C(=O)N4CCC(Oc5ccc(F)c(F)c5)CC4)cn3)CC2)cc1 [Compound 158, N-(1-(4-cyanobenzyl)piperidin-4-yl)-5-(4-(3,4-difluorophenoxy)piperidine-1-carbonyl)picolinamide] | < 500 nM |
| N#Cc1ccc(CN2CCC(NC(=O)c3ncc(C(=O)N4CCN(Cc5ccc(F)cc5)CC4)cc3C#CCNC(=O)COCCOCCOCCOCCNC(=O)CCCC[C@@H]3SC[C@@H]4NC(=O)N[C@@H]43)CC2)cc1 [Compound 159, N-(1-(4-cyanobenzyl)piperidin-4-yl)-3-(5,20-dioxo-24-((3aS,4S,6aR)-2-oxohexahydro-1H-thieno[3,4-d]imidazol-4-yl)-7,10,13,16-tetraoxa-4,19-diazatetracos-1-ynyl)-5-(4-(4-fluorobenzyl)piperazine-1-carbonyl)picolinamide] | 1000 to 5000 nM |
| COc1ccc(CN2CCC(NC(=O)c3ccc(C(=O)N4CCC(C(=O)c5ccc(F)cc5)CC4)cn3)CC2)cc1 [Compound 160, 5-(4-(4-fluorobenzoyl)piperidine-1-carbonyl)-N-(1-(4-methoxybenzyl)piperidin-4-yl)picolinamide] | < 500 nM |
| COc1ccc(CN2CCC(NC(=O)c3ccc(C(=O)N4CCC(Oc5ccc(F)cc5)CC4)cn3)CC2)cc1 [Compound 161, 5-(4-(4-fluorophenoxy)piperidine-1-carbonyl)-N-(1-(4-methoxybenzyl)piperidin-4-yl)picolinamide] | < 500 nM |
| COc1ccc(CN2CCC(NC(=O)c3ccc(C(=O)N4CCC(Oc5ccc(C#N)cc5)CC4)cn3)CC2)cc1 [Compound 162, 5-(4-(4-cyanophenoxy)piperidine-1-carbonyl)-N-(1-(4-methoxybenzyl)piperidin-4-yl)picolinamide] | < 500 nM |
| COc1ccc(CN2CCC(NC(=O)c3ccc(C(=O)N4CCC(C(=O)c5ccc(OC)cc5)CC4)cn3)CC2)cc1 [Compound 163, 5-(4-(4-methoxybenzoyl)piperidine-1-carbonyl)-N-(1-(4-methoxybenzyl)piperidin-4-yl)picolinamide] | < 500 nM |
| CC(C)(C)OC(=O)NCC#Cc1cc(C(=O)N2CCN(Cc3ccc(F)cc3)CC2)cnc1C(=O)NC1CCN(Cc2ccc(C#N)cc2)CC1 [Compound 164, tert-butyl 3-(2-(1-(4-cyanobenzyl)piperidin-4-ylcarbamoyl)-5-(4-(4-fluorobenzyl)piperazine-1-carbonyl)pyridin-3-yl)prop-2-ynylcarbamate] | 500 to 1000 nM |
| N#Cc1ccc(CN2CCC(NC(=O)c3ccc(N4CCC(Oc5ccc(C#N)cc5)CC4)cn3)CC2)cc1 [Compound 165, N-(1-(4-cyanobenzyl)piperidin-4-yl)-5-(4-(4-cyanophenoxy)piperidin-1-yl)picolinamide] | < 500 nM |
| N#Cc1ccc(CN2CCC(NC(=O)c3ccc(C(=O)NC4CCN(c5ccc(C#N)cc5)CC4)cn3)CC2)cc1 [Compound 166, N2-(1-(4-cyanobenzyl)piperidin-4-yl)-N5-(1-(4-cyanophenyl)piperidin-4-yl)pyridine-2,5-dicarboxamide] | < 500 nM |
| N#Cc1ccc(O[C@H]2CC[C@@H](NC(=O)c3ccc(C(=O)N4CCC(Oc5ccc(F)cc5)CC4)cn3)CC2)cc1 [Compound 167, N-((cis)-4-(4-cyanophenoxy)cyclohexyl)-5-(4-(4-fluorophenoxy)piperidine-1-carbonyl)picolinamide] | < 500 nM |
| N#Cc1ccc(O[C@H]2CC[C@H](NC(=O)c3ccc(C(=O)N4CCC(C(=O)c5ccc(F)cc5)CC4)cn3)CC2)cc1 [Compound 168, N-((trans)-4-(4-cyanophenoxy)cyclohexyl)-5-(4-(4-fluorobenzoyl)piperidine-1-carbonyl)picolinamide] | < 500 nM |
| N#Cc1ccc(O[C@H]2CC[C@H](NC(=O)c3ccc(C(=O)N4CCC(Oc5ccc(F)cc5)CC4)cn3)CC2)cc1 [Compound 169, N-((trans)-4-(4-cyanophenoxy)cyclohexyl)-5-(4-(4-fluorophenoxy)piperidine-1-carbonyl)picolinamide] | 500 to 1000 nM |
| O=C(Nc1ccc(C(=O)N2CCN(Cc3ccc(F)cc3)CC2)cn1)c1ccc(-c2ccccc2)cc1 [Compound 170, N-(5-(4-(4-fluorobenzyl)piperazine-1-carbonyl)pyridin-2-yl)biphenyl-4-carboxamide] | > 10000 nM |
| COc1ccc(C(=O)C2CCN(C(=O)c3ccc(C(=O)N[C@H]4CC[C@@H](Oc5ccc(C#N)cc5)CC4)nc3)CC2)cc1 [Compound 171, N-((cis)-4-(4-cyanophenoxy)cyclohexyl)-5-(4-(4-methoxybenzoyl)piperidine-1-carbonyl)picolinamide] | < 500 nM |
| COc1ccc(OC2CCN(C(=O)c3ccc(C(=O)N[C@H]4CC[C@H](Oc5ccc(C#N)cc5)CC4)nc3)CC2)cc1 [Compound 172, N-((trans)-4-(4-cyanophenoxy)cyclohexyl)-5-(4-(4-methoxyphenoxy)piperidine-1-carbonyl)picolinamide] | < 500 nM |
